{"source": "patent US20160270405A1", "about": "“Synergistic Compositions Comprising a Bacillus Subtilis Strain and a Pesticide” (BASF CORPORATION, priority 2013, published 2016)", "key": {"corn": {"tested_on": "corn", "assay": "Improvement of plant growth in corn: seed treatment, two week growth in seed germination pouches", "type": "in vivo", "conditions": "pyraclostrobin 1 g a.i./100 kg seed and/or FB17 1 × 10^6 CFU per seed, two weeks growth", "experimental": "(§1) Pyraclostrobin was applied to corn or wheat seeds as the commercial, liquid seed treatment formulation Stamina® (200 g per litre a.i., BASF Corporation, Research Triangle Park, North Carlolina), whereas Bacillus subtilis FB17 was applied to corn seeds as a SC formulation (about 2×10^10 CFU ml^−1).\nCorn or wheat seeds were treated at the BASF Seed Solutions Technology Center (SSTC) in Ames, Iowa. Pyraclostrobin and Bacillus subtilis UD1022 were applied to maize seeds as water-based slurries by using methods consistent with commercial seed treatment applications in a laboratory-scale batch treater. Briefly, 500 g of corn seeds were added to the drum of a laboratory-scale batch treater and 6 ml of prepared slurry (with appropriate amount of pyraclostrobin, Bacillus subtilis FB17, or combination thereof) was applied to the seed as the drum rotated. For 500 g of wheat seeds, 8 ml of slurry was used. Seed was rotated in the drum for 30 seconds following application of the slurry to assure uniform and complete coverage to the seed surface.\nTreated seeds were placed in seed germination pouches (Mega International, St. Paul, Minn.) and 20 ml of fertilizer solution that provided 50 ppm nitrogen, 7.5 ppm phosphorus, and 37.5 ppm potassium (derived from calcium nitrate, potassium nitrate, phosphoric acid and adjusted to pH 6.5) was added to each pouch. Seed germination pouches were placed in 25° C. growth chambers with a 16 h photoperiod. Five ml of fertilizer solution was added to seed germination pouches at two day intervals to replenish water lost to evapotranspiration.\nCorn or wheat plants were allowed to grow for two weeks. At the conclusion of the two week growth period, plant height and shoot and root dry weights were determined. Plant height was measured in centimeters. Shoot and root tissues were separated and dried in an oven at 68° C. for three days. Shoot and root dry weights were measured in mg using an analytical balance.\n(§2) Treatments were arranged in a completely randomized design with ten replications per treatment. Shoot height, shoot dry weight and root dry weight data were expressed as difference (%) relative to the not-treated control to facilitate application of Colby's formula (Colby, 1967) to calculate expected difference (EColby).\nEColby=PA+PB−PA*PB/100 • EColby expected difference, expressed in % difference from the not-treated control, when using the mixture of the active compounds A and B at the concentrations a and b • PA difference, expressed as % difference from the not-treated control, when using the active compound A at the concentration a • PB difference, expressed in % difference from the not-treated control, when using the active compound B at the concentration b."}, "wheat": {"tested_on": "wheat", "assay": "Improvement of plant growth in wheat: seed treatment, two week growth in seed germination pouches", "type": "in vivo", "conditions": "pyraclostrobin 1 g a.i./100 kg seed and/or FB17 1 × 10^6 CFU per seed, two weeks growth", "experimental": "as §1\nCorn or wheat seeds were treated at the BASF Seed Solutions Technology Center (SSTC) in Ames, Iowa. Pyraclostrobin and Bacillus subtilis UD1022 were applied to maize seeds as water-based slurries by using methods consistent with commercial seed treatment applications in a laboratory-scale batch treater. […]\nCorn or wheat plants were allowed to grow for two weeks. At the conclusion of the two week growth period, plant height and shoot and root dry weights were determined. Plant height was measured in centimeters. […] Shoot and root dry weights were measured in mg using an analytical balance.\nas §2, with “(EColby). […]” for “(EColby).”"}}, "data": [{"smiles": "COC(=O)N(OC)c1ccccc1COc1ccn(-c2ccc(Cl)cc2)n1", "note": "[Pyraclostrobin, pyraclostrobin]", "values": [{"measurement": "Difference (shoot dry weight) relative to not-treated control", "setting": "corn", "result": 1.1, "unit": "%"}, {"measurement": "Difference (shoot height) relative to not-treated control", "setting": "corn", "result": 3.5, "unit": "%"}, {"measurement": "Shoot dry weight", "setting": "corn; dried at 68° C. for three days", "result": 85.0, "unit": "mg"}, {"measurement": "Shoot height", "setting": "corn; mean of 10 measurements", "result": 29.7, "unit": "cm"}, {"measurement": "Difference (root dry weight) relative to not-treated control", "setting": "wheat", "result": 17.4, "unit": "%"}, {"measurement": "Root dry weight", "setting": "wheat; dried at 68° C. for three days", "result": 10.1, "unit": "mg"}]}]}
